Source: patent US11058742B2, “Food composition for suppressing hepatic lipogenesis” (FUJI OIL HOLDINGS INC., priority 2019, dated 2021)

Columns and labels:
[1] = system: Fasn gene mRNA; test: Secondary screening: expression level of Fasn gene mRNA in isolated hepatocyte derived from wild-type mouse; format: cell-based, mouse (C57BL/6J); details: each peptide 100 μg/ml final concentration, 24 hours, with insulin, LXR agonist, amino acid mixture; vs control (10% DMSO)
Experimental: (§1) In the secondary screening, evaluation is performed by measuring the expression level of Fasn gene mRNA using isolated hepatocyte derived from wild-type mouse (C57BL/6J mouse). More specifically, isolated hepatocyte derived from wild-type mouse (C57BL/6J mouse) is plated in 12-well plate in Dulbecco's modified Eagle's medium (DMEM) containing 1% penicillin and streptomycin, and 10% fetal calf serum (FCS) for 8 hours, and then subjected to 16 hours starvation by replacing the medium with Dulbecco's modified Eagle's medium (DMEM) containing 1% penicillin and streptomycin. The medium is recovered and cultured for 24 hours in a medium containing insulin, liver X receptor (LXR) agonist, amino acid mixture, and each peptide (100 μg/ml in the medium at final concentration). In addition, as a group without adding peptide, a sample to which 10% dimethyl sulfoxide (DMSO) is added instead of the peptide is similarly cultured for 24 hours. After removing the medium from each well, mRNA is extracted. The extraction of mRNA is performed with the SV Total RNA Isolation System (Promega, Z3105), reverse transcription from the RNA is performed with the PrimeScript RT reagent kit (Takara, RR0037A), and quantitative PCR is performed with the CFX384 Real-Time System and C1000 Thermal Cycler using the SYBR Select Master Mix kit (Life technologies, 4472908). The methods comply with the instructions for the kit and equipment.

[2] = system: Fasn gene mRNA; test: Tertiary screening: Fasn gene expression level with changed amount of peptide; format: cell-based, mouse (C57BL/6J); details: for effect of suppressing hepatic lipogenesis: conclusion from the results of primary to tertiary screening; for Fasn gene expression level (significantly reduced compared to the blank): final concentration of the sample 10, 30, 100 μg/ml, otherwise as secondary screening
Experimental: as §1
The amount of peptide to be added is changed (as used herein, the final concentration of the sample is 10, 30, 100 μg/ml, unless otherwise specified), and the expression level of the Fasn gene is evaluated in the same manner as in the secondary screening.

Row | Substance | Fasn gene expression level (significantly reduced compared to the blank) [1] | effect of suppressing hepatic lipogenesis [2] | Fasn gene expression level (significantly reduced compared to the blank) [2]
1 | Ala-Gly | significantly suppressed the expression of the Fasn gene | an effect of suppressing hepatic lipogenesis was confirmed | significantly suppressed the expression of the Fasn gene
2 | Ala-His | significantly suppressed the expression of the Fasn gene |  | 
3 | Ala-Tyr | significantly suppressed the expression of the Fasn gene |  | 
4 | Arg-Ala-Val |  | an effect of suppressing hepatic lipogenesis was confirmed | significantly suppressed the expression of the Fasn gene
5 | Arg-Trp-Phe |  | an effect of suppressing hepatic lipogenesis was confirmed | significantly suppressed the expression of the Fasn gene
6 | Asn-Arg-Val |  | an effect of suppressing hepatic lipogenesis was confirmed | significantly suppressed the expression of the Fasn gene
7 | Asn-Gly-Arg |  | an effect of suppressing hepatic lipogenesis was confirmed | significantly suppressed the expression of the Fasn gene
8 | Asp-Phe-Phe |  | an effect of suppressing hepatic lipogenesis was confirmed | significantly suppressed the expression of the Fasn gene
9 | Asp-Val-Phe |  | an effect of suppressing hepatic lipogenesis was confirmed | significantly suppressed the expression of the Fasn gene
10 | Gln-Glu-Glu |  | an effect of suppressing hepatic lipogenesis was confirmed | significantly suppressed the expression of the Fasn gene
11 | Gly-Ser-Leu |  | an effect of suppressing hepatic lipogenesis was confirmed | significantly suppressed the expression of the Fasn gene
12 | His-Ala-Gln |  | an effect of suppressing hepatic lipogenesis was confirmed | significantly suppressed the expression of the Fasn gene
13 | His-Asn | significantly suppressed the expression of the Fasn gene | an effect of suppressing hepatic lipogenesis was confirmed | significantly suppressed the expression of the Fasn gene
14 | His-Ser | significantly suppressed the expression of the Fasn gene | an effect of suppressing hepatic lipogenesis was confirmed | significantly suppressed the expression of the Fasn gene
15 | His-Thr | significantly suppressed the expression of the Fasn gene | an effect of suppressing hepatic lipogenesis was confirmed | significantly suppressed the expression of the Fasn gene
16 | His-Trp | significantly suppressed the expression of the Fasn gene | an effect of suppressing hepatic lipogenesis was confirmed | significantly suppressed the expression of the Fasn gene
17 | Ile-Asp-Arg |  | an effect of suppressing hepatic lipogenesis was confirmed | significantly suppressed the expression of the Fasn gene
18 | Ile-His-Arg |  | an effect of suppressing hepatic lipogenesis was confirmed | significantly suppressed the expression of the Fasn gene

Row | Substance | Fasn gene expression level (significantly reduced compared to the blank) [1] | effect of suppressing hepatic lipogenesis [2] | Fasn gene expression level (significantly reduced compared to the blank) [2]
19 | Ile-Ile-Pro |  | an effect of suppressing hepatic lipogenesis was confirmed | significantly suppressed the expression of the Fasn gene
20 | Ile-Val-Ile |  | an effect of suppressing hepatic lipogenesis was confirmed | significantly suppressed the expression of the Fasn gene
21 | Leu-Arg-Asp |  | an effect of suppressing hepatic lipogenesis was confirmed | significantly suppressed the expression of the Fasn gene
22 | Leu-Val-Ile |  | an effect of suppressing hepatic lipogenesis was confirmed | significantly suppressed the expression of the Fasn gene
23 | Lys-Leu-Gly |  | an effect of suppressing hepatic lipogenesis was confirmed | significantly suppressed the expression of the Fasn gene
24 | Lys-Pro-Ile |  | an effect of suppressing hepatic lipogenesis was confirmed | significantly suppressed the expression of the Fasn gene
25 | Phe-Ile-Arg |  | an effect of suppressing hepatic lipogenesis was confirmed | significantly suppressed the expression of the Fasn gene
26 | Pro-Phe-Tyr |  | an effect of suppressing hepatic lipogenesis was confirmed | significantly suppressed the expression of the Fasn gene
27 | Ser-Gly-Glu |  | an effect of suppressing hepatic lipogenesis was confirmed | significantly suppressed the expression of the Fasn gene
28 | Ser-Ser-Val |  | an effect of suppressing hepatic lipogenesis was confirmed | significantly suppressed the expression of the Fasn gene
29 | Trp-Glu | significantly suppressed the expression of the Fasn gene | an effect of suppressing hepatic lipogenesis was confirmed | significantly suppressed the expression of the Fasn gene
30 | Trp-Lys | significantly suppressed the expression of the Fasn gene | an effect of suppressing hepatic lipogenesis was confirmed | significantly suppressed the expression of the Fasn gene
31 | Tyr-Lys | significantly suppressed the expression of the Fasn gene | an effect of suppressing hepatic lipogenesis was confirmed | significantly suppressed the expression of the Fasn gene
32 | Tyr-Ser | significantly suppressed the expression of the Fasn gene | an effect of suppressing hepatic lipogenesis was confirmed | significantly suppressed the expression of the Fasn gene
33 | Val-Ile-Leu |  | an effect of suppressing hepatic lipogenesis was confirmed | significantly suppressed the expression of the Fasn gene
34 | Val-Leu-Gln |  | an effect of suppressing hepatic lipogenesis was confirmed | significantly suppressed the expression of the Fasn gene
35 | Val-Phe-Val |  | an effect of suppressing hepatic lipogenesis was confirmed | significantly suppressed the expression of the Fasn gene
